Consider 18 molecules from publication PMC3997423, “Identification and HLA-Tetramer-Validation of Human CD4^+ and CD8^+ T Cell Responses against HCMV Proteins IE1 and IE2” (PLoS ONE, 2014).

pKd: −log10 of the molar value. Where no end group is shown, it is not given here. Where only a bound is given, the exact number is not on record here.

Assay [1] has as its target T1, HLA-DRB3*01:01 (Homo sapiens, UniProt P01903+P79483).
T1 construct: made in house
Put plainly: Peptide-HLA class II binding affinity. To be noted: recombinant HLA class II α- and β-chains refolded with graded peptide, 48 h, 18°C; LOCI; ED50; read-out: Measured affinity.
Experimental: (§1) Peptide-HLA class I and II binding affinities were determined as previously described [44], [45].
(§2) Complex formation was detected using a proximity-based Luminescent Oxygen Channeling Immunoassay assay and the peptide concentration leading to half-saturation (ED50) was determined as previously described [44], [45]. Under the limited receptor concentrations used here, the ED50 reflects the affinity of the interaction.

The target in assay [2] is HLA-DRB1*03:01 (Homo sapiens, UniProt P01903+P01911, A100K/A102G/A103R/A169T/F55Y/I96L/K41T/L162R/M171V/P40S/Q125H/Q178H/Q39Y/R42S/S66N/T106N/T262R/W38E/Y61H). Put plainly: Peptide-HLA class II binding affinity. To be noted: recombinant HLA class II α- and β-chains refolded with graded peptide, 48 h, 18°C; LOCI; ED50; read-out: Measured affinity.
Sequence of HLA-DRB1*03:01 (P01903 26-254 limits assumed, other chains not shown): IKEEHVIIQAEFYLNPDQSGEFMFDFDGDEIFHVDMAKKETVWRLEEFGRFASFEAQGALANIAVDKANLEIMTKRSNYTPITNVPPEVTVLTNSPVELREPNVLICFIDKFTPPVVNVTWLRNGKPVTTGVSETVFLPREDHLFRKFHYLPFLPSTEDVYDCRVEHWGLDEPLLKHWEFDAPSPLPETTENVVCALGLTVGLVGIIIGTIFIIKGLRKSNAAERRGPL
Experimental: as §1, §2
Assay [3] has as its target HLA-DRB1*07:01 (Homo sapiens, UniProt P01903+P01911, A100R/A102G/A103Q/D57E/D86V/E43K/F76Y/K127E/L162R/M171V/P40G/Q125H/Q99D/R33Q/R42Y/R54Q/S133A/S66F/T210M/V115G/Y107V/Y59L/Y89S). Put plainly: Peptide-HLA class II binding affinity. To be noted: read-out: measured affinity.
Experimental: as §1, §2
The target of assay [4] is HLA-DRB1*15:01 (Homo sapiens, UniProt P01903+P01911). The assay can be described thus: Peptide-HLA class II binding affinity. The note with it: read-out: measured affinity.
Experimental: as §1, §2
In assay [5] the target is HLA-DRB1*01:01 (Homo sapiens, UniProt P01903+P01911, A100R/D57E/F55L/F60I/F76Y/I96L/L162R/M171V/P40L/Q125E/R42F/V115G/Y59C). Put plainly: Peptide-HLA class II binding affinity. To be noted: read-out: measured affinity.
Experimental: as §1, §2
The subject of assay [6] is CD8^+ T cells. Put plainly: Ex vivo peptide-HLA class I tetramer staining. To be noted: peptide-C*07:02 tetramer, responding donors. Type of assay: cell-based, human.
Experimental: To tetramerize the resulting peptide-HLA class I monomers, Streptavidin-PE or Streptavidin-APC (Biolegend, San Diego, USA) was sequentially added over 60 min at a 1∶4 molar ratio of Streptavidin to peptide-HLA-I monomers. PBMCs were resuspended in 25 µl PE- and APC-conjugated tetramer and incubated for 20 min at RT followed by 30 min incubation with anti-CD3-Pacific blue, anti-CD4-APC/Cy7, and anti-CD8-PerCP antibody (Biolegend, San Diego, USA).
Assay [7] concerns the target HLA-B*40:01 (Homo sapiens, UniProt P01889, A65T/A93T/A95T/D138N/D98Y/E176V/E69K/N87E/Q56L/Q94N/R180L/S121R/S35A/S48T/T167S/V36M/W171L/Y33H/Y91S). The assay can be described thus: Peptide-HLA class I binding affinity. To be noted: read-out: Measured affinity.
Experimental: as §1, §2
For assay [8], the target named is HLA-B*55:01 (Homo sapiens, UniProt P01889, A329T/C349S/D138N/D201E/E187T/E204Q/K202T/L119W/R155S/R180L/S121T/S35A/S48A/V127L/V306I/V36M/Y140L). Put plainly: Peptide-HLA class I binding affinity. To be noted: read-out: Measured affinity.
Experimental: as §1, §2
Assay [9] has as its target HLA-A*03:01 (Homo sapiens, UniProt P04439). Put plainly: biochemical.
Experimental: as §1, §2
Assay [10] deals with HLA-C*06:02 (Homo sapiens, UniProt P10321, A176E/A330V/C350S/L171W/L180W/L218V/M285V/M309V/M331V/N104K/P208H/Q277E/Q291P/R121W/S101N/S123Y/S297R/T329A/T363A/V319A/V328M). Put plainly: Peptide-HLA class I binding affinity. To be noted: read-out: Measured affinity.
Experimental: as §1, §2
Assay [11] has as its target HLA-B*08:01 (Homo sapiens, UniProt P01889, A93T/A95T/D138N/E176V/E187T/K202T/Q94N/R180D/S35A/V36M/Y33D/Y91F). Put plainly: biochemical.
In assay [12] the target is HLA-A*01:01 (Homo sapiens, UniProt P04439, A114D/A174V/A182V/D101N/D185E/E176A/E190D/L180R/Q94H/R68K/S129P/T187R/V100A/V91M/W191G). Put plainly: Peptide-HLA class I binding affinity. To be noted: read-out: Measured affinity.
Experimental: as §1, §2
Assay [13] addresses HLA-A*68:01 (Homo sapiens, UniProt P04439, A269V/D185E/E176V/E277Q/E87N/F33Y/G231S/I121M/I166T/I218V/L180W/L300P/L318F/N151K/P208A/P217A/Q86R/R169H/T345S). Put plainly: Peptide-HLA class I binding affinity. To be noted: read-out: Measured affinity.
Experimental: as §1, §2
Assay [14] has as its target HLA-DRB1*13:01 (Homo sapiens, UniProt P01903+P01911, A100E/A169T/K41T/L162R/M171V/P40S/Q125H/Q178H/Q39Y/Q99D/R42S/S66N/T262R/W38E/Y61H). Put plainly: Peptide-HLA class II binding affinity. The note with it: read-out: measured affinity.
Experimental: as §1, §2
Assay [15] addresses HLA-B*13:02 (Homo sapiens, UniProt P01889, A65T/A93T/A95T/D138N/D201E/D98Y/E176V/E204Q/E69M/E70A/G107R/K202T/L105A/L119W/N104T/N87E/Q94N/R106L/R155S/R169L/R180L/S101N/S121T/S35A/S48T/V127L/V36M/Y140L/Y91S). The assay can be described thus: Peptide-HLA class I binding affinity. To be noted: read-out: Measured affinity.
Experimental: as §1, §2

As for `CC[C@H](C)[C@H](NC(=O)[C@H](CCCCN)NC(=O)[C@@H](NC(=O)[C@H](CCCNC(=N)N)NC(=O)CNC(=O)[C@H](CCCNC(=N)N)NC(=O)[C@H](CCCNC(=N)N)NC(=O)[C@@H](N)[C@@H](C)O)C(C)C)C(=O)N[C@@H](CC(=O)O)C(=O)N[C@@H](CCC(=O)O)C(=O)N[C@H](C(=O)N[C@@H](CO)C(=O)N[C@@H](CCCNC(=N)N)C(=O)N[C@@H](CCSC)C(=O)N[C@@H](Cc1ccccc1)C(=O)O)C(C)C` [IE2_356–370], the results for the pKd in [1] and in assay [2] were 8.70 and 8.05, respectively.

Regarding `CC[C@H](C)[C@H](NC(=O)CNC(=O)[C@@H](N)CCCCN)C(=O)N[C@@H](CCC(N)=O)C(=O)N[C@H](C(=O)N[C@H](C(=O)N[C@@H](Cc1ccc(O)cc1)C(=O)N[C@H](C(=O)N[C@@H](CCCNC(=N)N)C(=O)N[C@@H](CC(N)=O)C(=O)N[C@@H](Cc1c[nH]cn1)C(=O)N[C@@H](CCC(=O)O)C(=O)N[C@H](C(=O)N[C@@H](CCCCN)C(=O)N[C@@H](CO)C(=O)O)C(C)C)[C@@H](C)O)[C@@H](C)CC)[C@@H](C)CC` [IE2_408–422], the pKd in assay [3] is 7.28; in assay [4], 7.35.

With `CSCC[C@H](NC(=O)[C@H](CC(C)C)NC(=O)[C@H](Cc1ccccc1)NC(=O)[C@@H]1CCCN1C(=O)[C@@H](NC(=O)[C@H](CO)NC(=O)[C@H](CC(C)C)NC(=O)[C@H](C)N)[C@@H](C)O)C(=O)N[C@@H](CCC(=O)O)C(=O)N[C@@H](Cc1c[nH]cn1)C(=O)N[C@H](C(=O)N[C@@H](CCSC)C(=O)N1CCC[C@H]1C(=O)N[C@H](C(=O)N[C@H](C(=O)O)[C@@H](C)O)C(C)C)[C@@H](C)O` [IE2_438–452], the pKd in assay [5] was 8.22. As to CRVLCCYVL [IE1_309–317], the “TMRI (%)” value in [6] is on record as 0.8–8.0%. Turning to EEAIVAYTL [IE1_381–389], the pKd in assay [7] is 7.89. With FLMEHTMPVTHPPEV [IE2_443–457], in assay [5], the pKd is 8.70. Turning to FPKTTNGCSQA [IE1_221–231], the pKd in assay [8] was 6.86.

For the molecule KEVNSQLSL [IE1_42–50/IE2_42–50], the pKd in assay [7] is 7.60. KLGGALQAK [IE1_184–192] gave a pKd in [9] of 6.67. Take QIKVRVDM [IE1_88–95]: the pKd in assay [10] was 8.52; in assay [11], 6.24. In assay [11], QIKVRVDMV [IE1_88–96] gave a pKd of 6.00. With RIKEHMLKK [IE1_99–107], in assay [9], the pKd was 6.27. As to TSDACMMTMY [IE1_290–299], the pKd in assay [12] was 8.05. On to TTFLQTMLR [IE1_33–41/IE2_33–41], for which the pKd in assay [13] was 9.00. For the molecule VKQIKVRVDMVRHRI [IE1_86–100], the results for the pKd in assay [1] and in [2] were 6.96 and 8.40, respectively. Turning to VRHRIKEHMLKKYTQ [IE1_96–110], the pKd in assay [14] is 8.70. As for VRVDMVRHRIKEHML [IE1_91–105], the pKd was 8.70 in assay [14], under 5.30 in assay [1] and 8.00 in assay [2].

Turning to YILGADPLRV [IE1_354-363], the pKd in assay [15] is 7.06.
